Here are results for 3 compounds from ChEMBL document CHEMBL4266012, “Identification of Quinoline-Based RIP2 Kinase Inhibitors with an Improved Therapeutic Index to the hERG Ion Channel” (ACS Med Chem Lett, 2018).

A short description of data set [1]: Cmax in Sprague-Dawley rat at 2 mg/kg, po by LC-MS/MS analysis. The format is ADME, organism-based. Further details: dose 2 mg/kg, route oral. The note with it: in vivo.
Data set [2] in a line: Oral bioavailability in Sprague-Dawley rat at 2 mg/kg by LC-MS/MS analysis. It counts as ADME, organism-based. As to conditions: in vivo.
The nature of data set [3]: Volume of distribution at steady state in Sprague-Dawley rat at 2 mg/kg, iv or 2 mg/kg, po by LC-MS/MS analysis. The format is ADME, organism-based. As to conditions: in vivo, read-out: Vdss.
A short description of data set [4]: AUC in Sprague-Dawley rat at 2 mg/kg, po by LC-MS/MS analysis. As to conditions: in vivo. The format is ADME, organism-based.
Data set [5] in a line: Clearance in Sprague-Dawley rat at 2 mg/kg, iv or 2 mg/kg, po by LC-MS/MS analysis. It counts as ADME, organism-based. As to conditions: in vivo.
Data set [6] can be described thus: Half life in Sprague-Dawley rat at 2 mg/kg, iv by LC-MS/MS analysis. The format is ADME, organism-based. As to conditions: in vivo.
The nature of data set [7]: Fraction unbound in Sprague-Dawley rat plasma. It counts as ADME, cell-free.
Data set [8] relates to Rattus norvegicus. The data set can be described thus: Time at which plasma concentration stays above in vitro human whole blood IC50 in Crl:CD(SD) rat peritonitis model at 2 mg/kg, po. The format is ADME, organism-based. The note with it: in vivo.
Data set [9] can be described thus: Half life in Sprague-Dawley rat at 1 mg/kg, iv by LC-MS/MS analysis. The format is ADME, organism-based. As to conditions: in vivo.
A short description of data set [10]: Cardiotoxicity in arterially perfused rabbit cardiac left ventricular wedge assessed as change in QT interval at 10 uM by electrophysiology assay. It counts as toxicity, tissue-based, Oryctolagus cuniculus, Heart left ventricle.
The nature of data set [11]: Clearance in Beagle dog at 1.1 mg/kg, iv or 2 mg/kg, po by LC-MS/MS analysis. The format is ADME, organism-based, Canis lupus familiaris. The note with it: in vivo.
A short description of data set [12]: Cardiotoxicity in arterially perfused rabbit cardiac left ventricular wedge assessed as change in QT interval at 0.3 uM by electrophysiology assay. It counts as toxicity, tissue-based, Oryctolagus cuniculus, Heart left ventricle.
Data set [13] can be described thus: Cardiotoxicity in arterially perfused rabbit cardiac left ventricular wedge assessed as QRS interval time at 0.3 uM by electrophysiology assay (reference value: 33.9 +/- 2.7 milliseconds). The format is toxicity, tissue-based, Oryctolagus cuniculus, Heart left ventricle.
A short description of data set [14]: Cardiotoxicity in arterially perfused rabbit cardiac left ventricular wedge assessed as change in isometric contractile force at 1 uM by electrophysiology assay (reference value: 0%). The format is toxicity, tissue-based, Oryctolagus cuniculus, Heart left ventricle.
Data set [15] in a line: Cardiotoxicity in arterially perfused rabbit cardiac left ventricular wedge assessed as change in isometric contractile force at 3 uM by electrophysiology assay (reference value: 0%). It counts as toxicity, tissue-based, Oryctolagus cuniculus, Heart left ventricle.
Data set [16] is described as follows: Cardiotoxicity in arterially perfused rabbit cardiac left ventricular wedge assessed as Tp-e interval by electrophysiology assay. It counts as toxicity, tissue-based, Oryctolagus cuniculus, Heart left ventricle.
The nature of data set [17]: Cardiotoxicity in arterially perfused rabbit cardiac left ventricular wedge assessed as Tp-e interval time at 1 uM by electrophysiology assay (reference value: 59.2 +/- 4.8 milliseconds). It counts as toxicity, tissue-based, Oryctolagus cuniculus, Heart left ventricle.
Data set [18] can be described thus: Cardiotoxicity in arterially perfused rabbit cardiac left ventricular wedge assessed as prolongation of QT interval by electrophysiology assay. It counts as toxicity, tissue-based, Oryctolagus cuniculus, Heart left ventricle.
Data set [19] is described as follows: AUC in Beagle dog at 2 mg/kg, po by LC-MS/MS analysis. The format is ADME, organism-based, Canis lupus familiaris. As to conditions: in vivo.
Data set [20] in a line: Oral bioavailability in Beagle dog at 2 mg/kg by LC-MS/MS analysis. The format is ADME, organism-based, Canis lupus familiaris. As to conditions: in vivo.
Data set [21] can be described thus: Cardiotoxicity in arterially perfused rabbit cardiac left ventricular wedge assessed as QRS interval time at 10 uM by electrophysiology assay (reference value: 33.9 +/- 2.7 milliseconds). It counts as toxicity, tissue-based, Oryctolagus cuniculus, Heart left ventricle.
Data set [22] is described as follows: Cmax in Beagle dog at 2 mg/kg, po by LC-MS/MS analysis. It counts as ADME, organism-based, Canis lupus familiaris. The note with it: in vivo. Further details: dose 2 mg/kg, route oral.
Data set [23] in a line: Fraction unbound in Beagle dog plasma. The format is ADME, cell-free, Canis lupus familiaris.
The nature of data set [24]: Cardiotoxicity in arterially perfused rabbit cardiac left ventricular wedge assessed as QRS interval time at 3 uM by electrophysiology assay (reference value: 33.9 +/- 2.7 milliseconds). The format is toxicity, tissue-based, Oryctolagus cuniculus, Heart left ventricle.
The nature of data set [25]: Clearance in Sprague-Dawley rat at 1.1 mg/kg, iv or 2 mg/kg, po by LC-MS/MS analysis. The format is ADME, organism-based. As to conditions: in vivo.
Data set [26] in a line: Cardiotoxicity in arterially perfused rabbit cardiac left ventricular wedge assessed as change in QT interval at 1 uM by electrophysiology assay. It counts as toxicity, tissue-based, Oryctolagus cuniculus, Heart left ventricle.
Data set [27] is described as follows: Cardiotoxicity in arterially perfused rabbit cardiac left ventricular wedge assessed as Tp-e interval time at 10 uM by electrophysiology assay (reference value: 59.2 +/- 4.8 milliseconds). The format is toxicity, tissue-based, Oryctolagus cuniculus, Heart left ventricle.
The nature of data set [28]: Cardiotoxicity in arterially perfused rabbit cardiac left ventricular wedge assessed as change in isometric contractile force at 0.3 uM by electrophysiology assay (reference value: 0%). The format is toxicity, tissue-based, Oryctolagus cuniculus, Heart left ventricle.
Data set [29] can be described thus: Volume of distribution at steady state in Beagle dog at 1.1 mg/kg, iv or 2 mg/kg, po by LC-MS/MS analysis. The format is ADME, organism-based, Canis lupus familiaris. As to conditions: in vivo, read-out: Vdss.
Data set [30] in a line: Cardiotoxicity in arterially perfused rabbit cardiac left ventricular wedge assessed as Tp-e interval time at 0.3 uM by electrophysiology assay (reference value: 59.2 +/- 4.8 milliseconds). The format is toxicity, tissue-based, Oryctolagus cuniculus, Heart left ventricle.
The nature of data set [31]: Half life in Sprague-Dawley rat at 1.1 mg/kg, iv by LC-MS/MS analysis. It counts as ADME, organism-based. As to conditions: in vivo.
Data set [32] is described as follows: Half life in Beagle dog at 1.1 mg/kg, iv by LC-MS/MS analysis. The format is ADME, organism-based, Canis lupus familiaris. As to conditions: in vivo.
Data set [33] can be described thus: Cardiotoxicity in arterially perfused rabbit cardiac left ventricular wedge assessed as change in QT interval at 3 uM by electrophysiology assay. The format is toxicity, tissue-based, Oryctolagus cuniculus, Heart left ventricle.
The nature of data set [34]: Cardiotoxicity in arterially perfused rabbit cardiac left ventricular wedge assessed as change in isometric contractile force at 10 uM by electrophysiology assay (reference value: 0%). It counts as toxicity, tissue-based, Oryctolagus cuniculus, Heart left ventricle.
Data set [35] in a line: Cardiotoxicity in arterially perfused rabbit cardiac left ventricular wedge assessed as QRS interval time at 1 uM by electrophysiology assay (reference value: 33.9 +/- 2.7 milliseconds). It counts as toxicity, tissue-based, Oryctolagus cuniculus, Heart left ventricle.
Data set [36] in a line: Volume of distribution at steady state in Sprague-Dawley rat at 1.1 mg/kg, iv or 2 mg/kg, po by LC-MS/MS analysis. The format is ADME, organism-based. As to conditions: in vivo, read-out: Vdss.
Data set [37] can be described thus: Cardiotoxicity in arterially perfused rabbit cardiac left ventricular wedge assessed as Tp-e interval time at 3 uM by electrophysiology assay (reference value: 59.2 +/- 4.8 milliseconds). The format is toxicity, tissue-based, Oryctolagus cuniculus, Heart left ventricle.

`Cc1[nH]nc(Nc2ccnc3ccc(S(=O)(=O)C(C)(C)C)cc23)c1C`: the concentration in [1] peaked (Cmax) at 990 ng/mL. Besides, in data set [2], the bioavailability turned out to be 82%. The Vd in data set [3] was 2.1 L/kg. In addition, the AUC in [4] is 3800 ng·h/mL. The compound further returned a clearance in data set [5] of 12 mL/min/kg. The compound also had a half-life in data set [6] of 4.2 h. In data set [7], this compound registered a fraction unbound of 0.112.

Compound `CC(C)(C)S(=O)(=O)c1ccc2nccc(Nc3n[nH]c4ccc(F)cc34)c2c1` yielded a Time in [8] of 4 h. The compound also came in with a fraction unbound in data set [7] of 0.026. This compound also had a half-life in data set [9] of 7 h.

On to `COc1cc2nccc(Nc3n[nH]c(C)c3C)c2cc1S(=O)(=O)C(C)(C)C`, for which the Activity in [10] is 9.3%; in data set [12] it was 2%; in [14], -17.3%; in [15], -22.6%; in data set [16], “Dose-dependent effect”; in data set [18], “Dose-dependent effect”. For the same compound, the Activity in data set [26] is given as 3.6%; in [28] it was -9.9%; in data set [33] it was 6.4%; in data set [34] it was -28%. Further, the clearance in data set [11] is 20 mL/min/kg; in data set [25], 12 mL/min/kg. For the same compound, the Time in data set [8] worked out at 24 h; in data set [13], 34.9 ms; in data set [17], 67.9 ms; in [21], 36.3 ms; in [24], 35.2 ms; in data set [27], 77 ms. For the same compound, the figures for the Time in data set [30], in data set [35] and in data set [37] were 64.2 ms, 35.4 ms and 73.3 ms, respectively. For the same compound, the figures for the Cmax in data set [1] and in [22] were 740 ng/mL and 330 ng/mL, respectively. In addition, the bioavailability was 85% in [2] and 96% in data set [20]. Besides, the AUC was 1900 ng·h/mL in [19] and 2400 ng·h/mL in data set [4]. The fraction unbound in data set [23] was determined as 0.163; in data set [7], 0.055. Further, the Vd in data set [29] worked out at 3.5 L/kg; in data set [36], 1.1 L/kg. The half-life was 3.1 h in data set [31] and 2.5 h in data set [32].

The Cmax is the peak of the concentration-time curve. What is called bioavailability is the share of a dose that reaches the circulation, judged against a reference dose that is usually intravenous. Higher therefore signals good availability. The AUC is the area under the concentration-time curve, a measure of exposure. A higher AUC goes with high exposure. A word on the half-life: it is how long it takes for the measured level to halve. Lower therefore signals rapid decline. One may read the fraction unbound as the share of the substance not bound to proteins or other matrix. A low value points to little free substance.
